Results from US5747536A, “Pharmaceutical composition comprising L-carnitine or derivative thereof and trihydroxy or tetrahydroxystilbene” (Sigma-Tau Industrie Farmaceutiche Riunite S.p.A., priority 1995, dated 1998).

How the values were obtained:
[1] = test system: platelet-rich plasma (PRP); assay: Platelet aggregation induced by collagen in platelet-rich plasma, photometric (Born); format: cell-based, human (volunteers); details: collagen 2.5 ng/ml, 10 minutes of incubation
Procedure: Platelet-rich plasma (PRP) was obtained from the blood of volunteers by centrifuging the plasma at 145 x g for 5 min at 22° C. The number of platelets was determined using a CA 580A (Delcon) Platelet Counter. The number of platelets was brought down to a fixed value of […] by adding platelet-poor plasma (PPP). PPP was obtained by centrifuging blood at 1600 x g for 10 min at 22° C.
Platelet aggregation was determined photometrically (Born G.V.R., Nature 194, 927, 1962) using an Elvi 840 aggregometer in plastic test tubes under continual stirring at 1000 rpm. The maximum light transmission (100%) was measured with PPP readings, whereas 0% transmission was measured with PRP readings.
The degree of aggregation of PRP induced by the aggregating agent (collagen at 2.5 to 5 ng/ml) was calculated as a percentage of maximum transmission of light obtained with PPP using […] PRP samples.
Aggregation was measured in basal conditions and after 10 minutes of incubation with L-carnitine, resveratrol, grape extract, and combinations of these preparations.

[2] = test system: production of thromboxanes and leukotrienes; synthesis of eicosanoids; details: cited from earlier work
[3] = test system: atherosclerotic vascular lesions (aorta); assay: Experimental atherosclerosis induced by atherogenic diet (Malinow method); format: in vivo; details: atherogenic diet for 6 consecutive weeks; male Wistar rats
[4] = test system: platelet aggregation induced by collagen or ADP; details: Fitzpatrick et al. 1993; cited from earlier work
formation of nitroxides = details: Fitzpatrick et al. 1993; cited from earlier work
lipo-oxygenases = details: Kimura et al. 1985; cited from earlier work
cyclo-oxygeNases = details: Kimura et al. 1985; cited from earlier work
[5] = Kimura et al. 1983; cited from earlier work

For Oc1ccc(C=Cc2cc(O)cc(O)c2)cc1 [resveratrol, 3,4',5-trihydroxystilbene], the IC50 ([1]; Homo sapiens, Platelet, 10 min, read-out: ED50, inhibition of the platelet aggregation induced by collagen) is listed as 3.5 ng/mL, the “production of thromboxanes and leukotrienes (in words)” value ([2]; Kimura et al. 1985) is listed as “reduction in the production of thromboxanes and leukotrienes” and the “synthesis of eicosanoids (in words)” value ([2]; background statement) is listed as “ability to modulate the synthesis of eicosanoids”. For the same compound, the “atherosclerotic vascular lesions (in words)” value [3] was “reduced”, the “inhibition of platelet aggregation induced by collagen or ADP (in words)” value [4] was “inhibiting platelet aggregation induced by collagen or ADP” and the “formation of nitroxides with a vasodilatory action (in words)” value (formation of nitroxides) was “promoting the formation of nitroxides with a vasodilatory action”. The “inhibition of lipo-oxygenases (in words)” value (lipo-oxygenases) was “inhibit”, the “inhibition of cyclo-oxygenases (in words)” value (cyclo-oxygeNases) was “inhibit” and the “antihyperoxidative ability (in words)” value [5] was “antihyperoxidative ability”.
With C[N+](C)(C)C[C@H](O)CC(=O)[O-] [carnitine, L-carnitine] the “effect on platelet aggregation (in words)” value [1] was “no significant change” and the “atherosclerotic vascular lesions (in words)” value [3] was “reduced”.
